# Reference: paper PMC7091493 (Journal of medicinal chemistry, 2019)
# Target: Mtb20S (Mycobacterium tuberculosis, UniProt P9WHT9)
# Type: biochemical
# Mtb20S, sequence (P9WHT9 58-291): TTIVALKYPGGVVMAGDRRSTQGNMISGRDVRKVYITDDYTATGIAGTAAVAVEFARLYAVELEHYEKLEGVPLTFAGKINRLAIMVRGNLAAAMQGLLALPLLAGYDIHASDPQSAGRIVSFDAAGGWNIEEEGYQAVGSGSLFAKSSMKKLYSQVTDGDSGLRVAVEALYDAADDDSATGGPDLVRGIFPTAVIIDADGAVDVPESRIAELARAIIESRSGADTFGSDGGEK
smiles,measurement,value
Cc1cc(C(=O)N[C@@H](CC(=O)N2CCC[C@@H]2c2ccccc2)C(=O)N[C@@H](C)c2ncc(-c3ccccc3F)[nH]2)no1 [B6],improved potency against Mtb20S,10 fold
